For assay [1], the system named is L1210. As to the kind of experiment: Tested for inhibition of L1210 cell growth in presence of dThd and expressed as % of control. Type of assay: functional, Mus musculus. Set-up: concentration or dose not given beside the values.
The target of the next assay is Thymidylate synthase (Mus musculus, UniProt P07607). Kind of assay: In vitro inhibition against L1210 thymidylate synthase (TS).
The test system of assay [2] is L1210. As to the kind of experiment: Tested for the concentration to inhibit 50% of L1210 cell growth in culture. Type of assay: functional, cell-based. The note with it: Mus musculus.
Assay [3] in a line: Ratio of IC50 of L1210:1565 cells to that of IC50 of L1210 cells. Type of assay: functional.
The subject of assay [4] is L1210. Kind of assay: Compound was tested for the concentration to inhibit 50% of L1210:1565 cell growth. To be noted: Mus musculus. Type of assay: functional, cell-based.

Thymidylate synthase, sequence (P07607 whole entry): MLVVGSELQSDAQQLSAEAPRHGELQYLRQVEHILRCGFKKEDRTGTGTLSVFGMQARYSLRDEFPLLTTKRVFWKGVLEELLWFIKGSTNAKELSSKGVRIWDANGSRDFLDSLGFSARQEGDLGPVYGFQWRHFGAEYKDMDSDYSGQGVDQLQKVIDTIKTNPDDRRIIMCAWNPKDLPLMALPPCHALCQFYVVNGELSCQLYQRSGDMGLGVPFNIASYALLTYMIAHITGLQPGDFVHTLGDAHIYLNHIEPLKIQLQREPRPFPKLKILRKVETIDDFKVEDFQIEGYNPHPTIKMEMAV

For `Cc1nc(O)c2cc(Cn3ccc4cc(C(=O)N[C@@H](CCC(=O)O)C(=O)O)ccc43)ccc2n1`, the Control in the assay on L1210 [1] stood at 90%. Also, the figures for the IC50 at Thymidylate synthase and in the assay on L1210 [2] were 3.27 µM and 0.036 µM, respectively.
Turning to `Cc1nc(O)c2cc(NCc3ccc(C(=O)N[C@@H](CCC(=O)O)C(=O)O)s3)ccc2n1`, in the assay on L1210 [1], the Control was determined as 88%. For the same compound, the values for the IC50 against Thymidylate synthase and in the assay on L1210 [2] were 6.98 µM and 0.026 µM, respectively.
On to `Cc1nc(=O)c2cc(CN(C)c3ccc(C(=O)N[C@@H](CCC(=O)O)C(=O)O)s3)ccc2[nH]1` [RALTITREXED], for which the figures for the IC50 in the assay with L1210 [2] and with L1210 [4] were 0.007 µM and 0.96 µM, respectively. The Ratio in assay [3] is 137.
In the case of `Cc1nc(O)c2cc(NCc3ccc(C(=O)N[C@@H](CCC(=O)O)C(=O)O)cn3)ccc2n1`, the IC50 against Thymidylate synthase is 16.7 µM; in the assay on L1210 [2], 0.06 µM.
Take `C=CCN(Cc1ccc(C(=O)N[C@@H](CCC(=O)O)C(=O)O)s1)c1ccc2nc(C)nc(O)c2c1`: in the assay with L1210 [1], the Control turned out to be 95%. Besides, the IC50 on Thymidylate synthase amounted to 14.1 µM; in the assay with L1210 [2], 0.54 µM.
`Cc1nc(O)c2cc(N(CCO)Cc3ccc(C(=O)N[C@@H](CCC(=O)O)C(=O)O)s3)ccc2n1`: the Control with L1210 [1] came to 91%. In addition, the figures for the IC50 at Thymidylate synthase and in the assay on L1210 [2] were 13.3 µM and 6.2 µM, respectively.
Take `Cc1nc(O)c2cc(N(CCF)Cc3ccc(C(=O)N[C@@H](CCC(=O)O)C(=O)O)s3)ccc2n1`: in the assay on L1210 [1], the Control was 95%. Moreover, the results for the IC50 against Thymidylate synthase and with L1210 [2] were 9.9 µM and 0.38 µM, respectively.
Take `Cc1nc2ccc(CNc3ccc(C(=O)N[C@@H](CCC(=O)O)C(=O)O)s3)cc2c(=O)[nH]1`: the results for the IC50 against Thymidylate synthase and in the assay with L1210 [2] were 24.8 µM and 3 µM, respectively.
`Cc1nc(O)c2cc(N(C)Cc3ccc(C(=O)N[C@@H](CCC(=O)O)C(=O)O)cc3)ccc2n1`: the Control in the assay with L1210 [1] came out at 93%. For the same compound, the IC50 was determined as 2.62 µM against Thymidylate synthase, 0.7 µM in the assay with L1210 [2] and 7.7 µM in the assay on L1210 [4]. Moreover, the Ratio in assay [3] turned out to be 11.
As for `Cc1nc(O)c2cc(COc3ccc(C(=O)N[C@@H](CCC(=O)O)C(=O)O)cc3)ccc2n1`, the Control in the assay with L1210 [1] was 75%. The half-inhibitory concentration (IC50) against Thymidylate synthase was determined as 21.5 µM; with L1210 [2], 0.04 µM.
Taken in the same sequence, the figures for `Cc1nc(O)c2cc(NCc3ccc(C(=O)N[C@@H](CCC(=O)O)C(=O)O)cc3F)ccc2n1` were 94%, 6.73 µM and 0.053 µM.
Taken in the same sequence, the figures for `C#CCN(Cc1ccc2nc(C)nc(O)c2c1)c1ccc2c(c1)CN([C@@H](CCC(=O)O)C(=O)O)C2=O` were 96%, 0.15 µM and 0.17 µM.
As for `C#CCN(Cc1ccc(C(=O)N[C@@H](CCC(=O)O)C(=O)O)cc1)c1ccc2nc(C)nc(O)c2c1`, the Control in the assay with L1210 [1] came out at 89%. This compound showed a half-maximal inhibitory concentration (IC50) in the assay on L1210 [2] of 2.4 µM.
For the compound `Cc1nc(O)c2cc(NC(C)c3ccc(C(=O)N[C@@H](CCC(=O)O)C(=O)O)cc3)ccc2n1` (stereo not given in full), in the assay on L1210 [1], the Control was 93%. For the same compound, the IC50 against Thymidylate synthase is 4.3 µM; with L1210 [2] it was 0.8 µM.
Taken in the same sequence, the figures for `Cc1nc(O)c2cc(NCc3ccc(C(=O)N[C@@H](CCC(=O)O)C(=O)O)cc3)ccc2n1` were 93%, 8.28 µM and 0.07 µM.
In the same order, the values of `Cc1nc(O)c2cc(CN(C)c3ccc4c(c3)CN([C@@H](CCC(=O)O)C(=O)O)C4=O)ccc2n1` are 90%, 0.72 µM and 1.3 µM.
In the case of `Cc1nc2ccc(CN(C)c3ccc(C(=O)N[C@@H](CCC(=O)O)C(=O)O)cc3)cc2c(=O)[nH]1`, in assay [3], the Ratio turned out to be 38. The compound further displayed an IC50 in the assay with L1210 [4] of 4.2 µM.
With `Cc1nc(O)c2cc(Sc3ccc(C(=O)N[C@@H](CCC(=O)O)C(=O)O)cc3)ccc2n1`, the IC50 at Thymidylate synthase is 10.3 µM; in the assay on L1210 [2], more than 20 µM.
On to `Cc1nc(O)c2cc(CNc3ccc4c(c3)CN([C@@H](CCC(=O)O)C(=O)O)C4=O)ccc2n1`, for which the IC50 at Thymidylate synthase is 8.27 µM; in the assay on L1210 [2], 3 µM.
In the case of `Cc1nc(O)c2cc(CSc3ccc(C(=O)N[C@@H](CCC(=O)O)C(=O)O)cc3)ccc2n1`, in the assay with L1210 [1], the Control worked out at 99%. Further, the IC50 came out at 4.66 µM on Thymidylate synthase and 0.42 µM in the assay on L1210 [2].
For the compound `Cc1nc(O)c2cc(N(C)Cc3ccc(C(=O)N[C@@H](CCC(=O)O)C(=O)O)s3)ccc2n1`, the IC50 worked out at 3.82 µM at Thymidylate synthase, 0.3 µM with L1210 [2] and 2.1 µM in the assay with L1210 [4]. The Ratio in assay [3] turned out to be 7.
Take `Cc1nc(O)c2cc(N(C)C(C)c3ccc(C(=O)N[C@@H](CCC(=O)O)C(=O)O)cc3)ccc2n1` (stereo not given in full): the IC50 came out at 1.07 µM on Thymidylate synthase and 0.35 µM in the assay with L1210 [2].
As to `CCN(Cc1ccc(C(=O)N[C@@H](CCC(=O)O)C(=O)O)s1)c1ccc2nc(C)nc(O)c2c1`, in the assay with L1210 [1], the Control turned out to be 94%. Further, the IC50 on Thymidylate synthase turned out to be 8.42 µM; in the assay on L1210 [2], 0.66 µM.

As usually defined, the IC50 is the midpoint of a concentration-inhibition curve.
